The test system of one experiment is normal mice. The experiment is described as follows: Lowering of blood glucose level in normal mice. Type of experiment: in vivo. The settings on record: intraperitoneal, 20-24 μg/mouse. As to the method: FIGS. 7A-B. Effect of SPC-insulins on lowering blood glucose level in vivo. The purified yeast-(FIG. 7A) or E. coli-(FIG. 7B) expressed SPC-insulin-P (p-insulin) and SPC-insulin-PP (2p-insulin) (20-24 μg/mouse) was injected (intraperitoneally) into normal mice. The glucose levels of the blood collected from tail vein at the increasing time points were measured using Contour^next One glucose meter (n=6). Humulin R (20-24 μg/mouse) was used as a positive control (n=6, M±SE). The mice were under normal diets.
FIGS. 8A-B. (FIG. 8A) Effect of SPC-insulins on lowering blood glucose level of normal mice using subcutaneous injection. The yeast-expressed SPC-insulin-P (p-insulin) and SPC-insulin-PP (2p-insulin) (20-30 μg/mouse) was injected subcutaneously into the normal mice (n=6). (FIG. 8B) Effects of the purified E. coli-expressed SPC-insulins on lowering blood glucose level of STZ-induced type-1 diabetic mice. 20-30 μg/mouse of the purified E. coli-expressed SPC-P (P-insulin) or SPC-insulin-PP (PP-insulin) was intraperitoneally injected into the STZ-induced Type-1 diabetic mice (with an elevated blood glucose levels of 370-400 mg/dl, n=6). The glucose levels of the blood collected from the mouse tail vein at the increasing time points were measured using Contour^next One glucose meter. Humulin R (20-24 μg/mouse) was used as a positive control (n=6, M±SE). […]

Experiment [1] deals with STZ-induced type-1 diabetic mice. The experiment is described as follows: Lowering of blood glucose level in STZ-induced type-1 diabetic mice. Type of experiment: in vivo. Particulars: intraperitoneal, 20-30 μg/mouse; for start of working after injection: purified E. coli-expressed. The method, then:
FIGS. 8A-B. (FIG. 8A) Effect of SPC-insulins on lowering blood glucose level of normal mice using subcutaneous injection. The yeast-expressed SPC-insulin-P (p-insulin) and SPC-insulin-PP (2p-insulin) (20-30 μg/mouse) was injected subcutaneously into the normal mice (n=6). (FIG. 8B) Effects of the purified E. coli-expressed SPC-insulins on lowering blood glucose level of STZ-induced type-1 diabetic mice. 20-30 μg/mouse of the purified E. coli-expressed SPC-P (P-insulin) or SPC-insulin-PP (PP-insulin) was intraperitoneally injected into the STZ-induced Type-1 diabetic mice (with an elevated blood glucose levels of 370-400 mg/dl, n=6). The glucose levels of the blood collected from the mouse tail vein at the increasing time points were measured using Contour^next One glucose meter. Humulin R (20-24 μg/mouse) was used as a positive control (n=6, M±SE). STZ-Control=oval; Hummulin R=rectangle; SPC-Insulin-P=upward pointing triangle; SPC-Insulin-PP=downward pointing triangle.
The second animal model is the STZ-induced type-1 diabetic mouse. The mice received STZ injection quickly developed into type 1 diabetes because STZ destroyed the insulin-producing cells in pancreas and elevated the glucose level (FIGS. 8A-B, blood glucose level labeled with STZ). The both of the purified SPC-insulin-P and -PP were tested on the diabetic mice. Similar to that of the normal mice, the SPC-insulins started working around 1-1.5 hours after injection, reached to the best therapeutic effects around 4 hours, and then last for 24-48 hours (FIGS. 8A-B).

For experiment [2] the following is noted: commercial insulins; cited from earlier work.

As for “Humulin R: commercial regular human insulin, two-chain, used as positive control”, the “duration of blood glucose lowering effect” value with normal mice was 4 to 8 h.

On to “SPC-insulin-P: single polypeptide chain human insulin, b-chain C-terminus linked to a-chain N-terminus by one proline residue”, for which, in experiment [1], the duration of effect is 24 to 48 h, the “time to best therapeutic effect” value was “around 4 hours” and the “start of working after injection” value was in the range of 1 to 1.5 h.

For “SPC-insulin-PP: single polypeptide chain human insulin, b-chain linked to a-chain by two proline residues”, in experiment [1], the duration of effect lay in the range of 24 to 48 h, the “time to best therapeutic effect” value was “around 4 hours” and the “start of working after injection” value lay within 1 to 1.5 h.

Turning to insulin Detemir, the duration of action in experiment [2] was 18 to 24 h.

Consider insulin Glargine, for which the duration of action in experiment [2] was 18 to 24 h.

These data come from patent US12077568B2 (University of Houston System, priority 2018, dated 2024).
